Five compounds from the NIST ThermoML archive (doi:10.1021/je100715x) can be followed below.

Numbers after ± are expanded uncertainties.

Assay in one data set: not given
Particulars: 303.15 K; 101.33 kPa; Liquid; Capillary tube (Ostwald / Ubbelohde) method.
The term viscosity denotes the internal friction of a fluid under shear. For the compound `CC(=O)c1ccccc1` [acetophenone], the viscosity is 1.518 ± 0.02 mPa·s.

On to `O=C1CCCCC1` [cyclohexanone], for which the viscosity worked out at 1.816 ± 0.023 mPa·s.

For `O=C1CCCC1` [cyclopentanone], the viscosity was found to be 0.999 ± 0.013 mPa·s.

`CCOC(=O)C(=O)OCC` [diethyl ethanedioate]: the viscosity is listed as 1.623 ± 0.021 mPa·s.

For `CCC(=O)CC` [pentan-3-one], the viscosity is reported as 0.429 ± 0.006 mPa·s.

The data set is the same for the next values; noted with them: 303.15 K; 101.33 kPa; Liquid; Vibrating tube method.
As a reminder, the mass density is mass per unit of volume. Turning to `CC(=O)c1ccccc1` [acetophenone], the mass density was determined as 1019.9 ± 0.3 kg/m3.

For `O=C1CCCCC1` [cyclohexanone], the mass density is recorded as 937.7 ± 0.4 kg/m3.

Regarding `O=C1CCCC1` [cyclopentanone], the mass density was 938.5 ± 0.4 kg/m3.

Consider `CCOC(=O)C(=O)OCC` [diethyl ethanedioate], for which the mass density came out at 1066.1 ± 0.4 kg/m3.

For `CCC(=O)CC` [pentan-3-one], the mass density is on record as 805.7 ± 0.3 kg/m3.

The same data set, now with this note: 308.15 K; 101.33 kPa; Liquid; Capillary tube (Ostwald / Ubbelohde) method.
For `CC(=O)c1ccccc1` [acetophenone], the viscosity amounted to 1.378 ± 0.018 mPa·s.

For the compound `O=C1CCCCC1` [cyclohexanone], the viscosity came out at 1.657 ± 0.021 mPa·s.

As for `O=C1CCCC1` [cyclopentanone], the viscosity is 0.927 ± 0.012 mPa·s.

In the case of `CCOC(=O)C(=O)OCC` [diethyl ethanedioate], the viscosity is 1.48 ± 0.019 mPa·s.

Turning to `CCC(=O)CC` [pentan-3-one], the viscosity is listed as 0.397 ± 0.005 mPa·s.

The same data set, now with this note: 308.15 K; 101.33 kPa; Liquid; Vibrating tube method.
`CC(=O)c1ccccc1` [acetophenone]: the mass density turned out to be 1016.9 ± 0.3 kg/m3.

On to `O=C1CCCCC1` [cyclohexanone], for which the mass density came to 932.8 ± 0.4 kg/m3.

As to `O=C1CCCC1` [cyclopentanone], the mass density was found to be 933.9 ± 0.4 kg/m3.

In the case of `CCOC(=O)C(=O)OCC` [diethyl ethanedioate], the mass density is given as 1060.5 ± 0.4 kg/m3.

On to `CCC(=O)CC` [pentan-3-one], for which the mass density is 801.7 ± 0.3 kg/m3.

The data set is the same for the next values; noted with them: 313.15 K; 101.33 kPa; Liquid; Capillary tube (Ostwald / Ubbelohde) method.
Regarding `CC(=O)c1ccccc1` [acetophenone], the viscosity is recorded as 1.291 ± 0.016 mPa·s.

On to `O=C1CCCCC1` [cyclohexanone], for which the viscosity is recorded as 1.542 ± 0.02 mPa·s.

With `O=C1CCCC1` [cyclopentanone], the viscosity stood at 0.865 ± 0.011 mPa·s.

Consider `CCOC(=O)C(=O)OCC` [diethyl ethanedioate], for which the viscosity is reported as 1.367 ± 0.018 mPa·s.

With `CCC(=O)CC` [pentan-3-one], the viscosity stood at 0.388 ± 0.005 mPa·s.

The data set is the same for the next values; noted with them: 313.15 K; 101.33 kPa; Liquid; Vibrating tube method.
For `CC(=O)c1ccccc1` [acetophenone], the mass density is reported as 1013.5 ± 0.3 kg/m3.

With `O=C1CCCCC1` [cyclohexanone], the mass density stood at 928.2 ± 0.4 kg/m3.

For the compound `O=C1CCCC1` [cyclopentanone], the mass density is 929 ± 0.4 kg/m3.

As for `CCOC(=O)C(=O)OCC` [diethyl ethanedioate], the mass density is on record as 1054.5 ± 0.4 kg/m3.

With `CCC(=O)CC` [pentan-3-one], the mass density is 797.7 ± 0.4 kg/m3.

The next data set is described as follows: refractive index (Na D-line) (dimensionless). Particulars: 298.15 K; 101.33 kPa; Liquid; Standard Abbe refractometry.
As usually defined, the refractive index is the speed of light in vacuum divided by its phase velocity in the sample. Turning to `O=C1CCCC1` [cyclopentanone], the refractive index was determined as 1.4352 ± 0.0004.

The same data set, now with this note: 303.15 K; 101.33 kPa; Liquid; Standard Abbe refractometry.
Regarding `CC(=O)c1ccccc1` [acetophenone], the refractive index was determined as 1.5294 ± 0.0004.

For `O=C1CCCCC1` [cyclohexanone], the refractive index turned out to be 1.4465 ± 0.0004.

With `O=C1CCCC1` [cyclopentanone], the refractive index is listed as 1.4335 ± 0.0004.

Turning to `CCOC(=O)C(=O)OCC` [diethyl ethanedioate], the refractive index was determined as 1.4063 ± 0.0004.

Regarding `CCC(=O)CC` [pentan-3-one], the refractive index is on record as 1.3879 ± 0.0004.

The same data set, now with this note: 308.15 K; 101.33 kPa; Liquid; Standard Abbe refractometry.
As to `CC(=O)c1ccccc1` [acetophenone], the refractive index was 1.527 ± 0.0004.

With `O=C1CCCCC1` [cyclohexanone], the refractive index is listed as 1.444 ± 0.0004.

In the case of `O=C1CCCC1` [cyclopentanone], the refractive index came to 1.431 ± 0.0004.

On to `CCOC(=O)C(=O)OCC` [diethyl ethanedioate], for which the refractive index amounted to 1.404 ± 0.0004.

For `CCC(=O)CC` [pentan-3-one], the refractive index is 1.3857 ± 0.0004.

Still in this data set, the particulars now being: 313.15 K; 101.33 kPa; Liquid; Standard Abbe refractometry.
For `CC(=O)c1ccccc1` [acetophenone], the refractive index is reported as 1.525 ± 0.0004.

On to `O=C1CCCCC1` [cyclohexanone], for which the refractive index is reported as 1.442 ± 0.0004.

`O=C1CCCC1` [cyclopentanone]: the refractive index worked out at 1.429 ± 0.0004.

For the compound `CCOC(=O)C(=O)OCC` [diethyl ethanedioate], the refractive index came out at 1.402 ± 0.0004.

As for `CCC(=O)CC` [pentan-3-one], the refractive index is reported as 1.3835 ± 0.0004.
